From patent publication US20240228512A1, “ACYCLIC OXAZEPINE COMPOUNDS COMPRISING A 6-AZA MOIETY AND USES THEREOF” (Genentech, Inc., priority 2022, published 2024)

Experiments:
[1] = tested on: SW620 cells; assay: SW620 3D proliferation assay (CellTiter-Glo); assay type: cell-based; settings: Homo sapiens, SW-620, 168 h, SW620, 3D culture, 7 days, read-out: SW620 CTG IC50
Method: (§1) SW620 and HPAC 3D proliferation assays.
(§2) Compound potencies were assessed in proliferation assays conducted with SW620 and HPAC cell lines grown in 3D cultures. Cells were seeded into 96- or 384-well ultra-low attachment plates at 3000 or 1000 cells/well, respectively, in culture medium (RPMI-1640, 10% FBS, 2 mM L-glutamine). The plated cells were centrifuged briefly, allowed to rest for 30 minutes under ambient conditions, and cultured overnight at 37° C./5% CO2 to initiate the formation of spheroids. Compound dilutions were prepared across a range of concentrations in DMSO and added to the appropriate wells of the assay plates with a 333-fold dilution into the culture medium. The plates were further incubated for 7 days. The quantity of viable cells was assessed using CellTiter-Glo 3D Cell Viability Assay (Promega). The detection reagent penetrates the spheroids and lyses the cells. The released ATP that was detected with luciferase and a luciferase substrate to generate a luminescent readout. […] The data points were fit to a 4-parameter logistic equation to determine IC50 values.

[2] = target: recombinant human KRAS wild type (SOS1-mediated nucleotide exchange) (Homo sapiens (Human), UniProt P01116); assay: KRAS biochemical assay, BODIPY-GDP exchange TR-FRET (WT-GDP HTRF)
Method: [Worded in the source for another variant; this variant is reported under the same test.] KRAS Biochemical Assay—BODIPY-GDP Exchange TR-FRET.
Biochemical compound potencies were assessed by evaluating inhibition of SOS1-mediated nucleotide exchange in KRAS G12D. The SOS1-promoted exchange of fluorescently-labeled GDP (BOPIDY-GDP) was monitored by time-resolved fluorescence resonance energy transfer (TR-FRET). Compounds solubilized in DMSO were dispensed as concentration series into 384-well white assay plates. […] The reaction was initiated with the addition of 5 μL of 3 nM recombinant human SOS1 and 300 nM BODIPY-GDP in assay buffer. After a 60-minute incubation, the fluorescence was measured with excitation at 337 nm and emission at 490 and 520 nm. The TR-FRET ratio was determined as the fluorescence at 520 nm divided by the fluorescence at 490 nm multiplied by 10,000. […] The normalized TR-FRET results were plotted against compound concentration, and the data fit to a 4-parameter Hill equation to determine the IC50 values.

[3] = tested on: SW620 PERK; assay: SW620 PERK assay; assay type: cell-based; settings: Homo sapiens, SW-620, SW620, PERK
[4] = tested on: H1975 cells; assay: H1975 CTG proliferation assay; assay type: cell-based; settings: Homo sapiens, NCI-H1975, H1975, CTG
[5] = target: recombinant human mutant KRas G12V (SOS1-mediated nucleotide exchange) (Homo sapiens (Human), UniProt P01116, G12V); assay: KRAS biochemical assay, BODIPY-GDP exchange TR-FRET (G12V-GDP HTRF)
[6] = tested on: HPAC cells; assay: HPAC 3D proliferation assay (CellTiter-Glo); assay type: cell-based; settings: Homo sapiens, 168 h, 3D culture, 7 days, read-out: HPAC CTG IC50
Method: as §1, §2

Chain of recombinant human KRAS wild type (SOS1-mediated nucleotide exchange) (P01116-2 other isoform, or with tags, fused parts or gaps): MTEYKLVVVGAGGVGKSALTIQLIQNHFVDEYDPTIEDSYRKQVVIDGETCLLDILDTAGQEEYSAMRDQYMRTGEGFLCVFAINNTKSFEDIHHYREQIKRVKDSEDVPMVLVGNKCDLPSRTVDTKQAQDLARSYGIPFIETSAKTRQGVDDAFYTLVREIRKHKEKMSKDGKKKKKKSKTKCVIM
Chain of recombinant human mutant KRas G12V (SOS1-mediated nucleotide exchange) (P01116-2 other isoform, or with tags, fused parts or gaps G12V): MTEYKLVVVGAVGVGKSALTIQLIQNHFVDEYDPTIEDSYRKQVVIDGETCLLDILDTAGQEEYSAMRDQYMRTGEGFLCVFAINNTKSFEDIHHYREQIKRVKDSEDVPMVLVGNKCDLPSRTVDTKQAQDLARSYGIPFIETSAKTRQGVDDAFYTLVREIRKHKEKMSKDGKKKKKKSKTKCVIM

For `C#Cc1cccc2cc(N)cc(-c3nc4c5c(nc(OC[C@@]67CCCN6C[C@H](F)C7)nc5c3F)N([C@H](C)c3nccnc3N)CCO4)c12` [Example 29, 3-((R)-1-(5-(3-Amino-8-ethynyinaphthalen-1-yl)-4-fluoro-2-(((2R,7aS)-2-fluorotetrahydro-1H-pyrrolizin-7a(5H)-yl)methoxy)-8,9-dihydro-10H-7-oxa-1,3,6,10-tetraazacyclohepta[de]naphthalen-10-yl)ethyl)pyrazin-2-amine], the IC50 [1] was 1.64 nM, the IC50 [2] was 0.15 nM and the IC50 [3] was 0.66 nM. The IC50 [4] was 2.59 nM, the IC50 [5] was 0.09 nM and the IC50 [6] was 4.51 nM.

Compound `C#Cc1cccc2nc(N)cc(-c3nc4c5c(nc(OC[C@@]67CCCN6C[C@H](F)C7)nc5c3F)N([C@H](C)c3cccnc3N)CCO4)c12` [Example 30, 4-(10-((R)-1-(2-aminopyridin-3-yl)ethyl)-4-fluoro-2-(((2R,7aS)-2-fluorotetrahydro-1H-pyrrolizin-7a(5H)-yl)methoxy)-9,10-dihydro-8H-7-oxa-1,3,6,10-tetraazacyclohepta[de]naphthalen-5-yl)-5-ethynylquinolin-2-amine] has an IC50 [1] of 2.67 nM, an IC50 [2] of 0.114 nM and an IC50 [3] of 2.65 nM. The IC50 [4] was 2.59 nM, the IC50 [5] was 0.06 nM and the IC50 [6] was 15.8 nM.

For `Cc1c(F)c(N)cc(-c2nc3c4c(nc(OC[C@@]56CCCN5C[C@]5(CC5(F)F)C6)nc4c2F)N([C@H](C)c2cccnc2N)CCO3)c1C(F)(F)F` [Example 31, 3-((R)-1-(5-(5-amino-4-fluoro-3-methyl-2-(trifluoromethyl)phenyl)-2-(((1R,7a'S)-2,2-difluorodihydro-1′H,3′H-spiro[cyclopropane-1,2′-pyrrolizin]-7a′(5′H)-yl)methoxy)-4-fluoro-8,9-dihydro-10H-7-oxa-1,3,6,10-tetraazacyclohepta[de]naphthalen-10-yl)ethyl)pyridin-2-amine], the IC50 [1] was 16.2 nM, the IC50 [2] was 0.419 nM and the IC50 [3] was 26.8 nM. The IC50 [4] was 17.9 nM, the IC50 [5] was 0.27 nM and the IC50 [6] was 156 nM.

Compound `C[C@H](c1cccnc1N)N1CCOc2nc(-c3cc(N)nc4ccccc34)c(F)c3nc(OC[C@@]45CCCN4C[C@H](F)C5)nc1c23` [Example 602, 4-(10-((R)-1-(2-aminopyridin-3-yl)ethyl)-4-fluoro-2-(((2R,7aS)-2-fluorotetrahydro-1H-pyrrolizin-7a(5H)-yl)methoxy)-9,10-dihydro-8H-7-oxa-1,3,6,10-tetraazacyclohepta[de]naphthalen-5-yl)quinolin-2-amine] has an IC50 [1] of 1950 nM, an IC50 [2] of 22.6 nM and an IC50 [3] of 629 nM. The IC50 [4] was 296 nM, the IC50 [5] was 2.2 nM and the IC50 [6] was > 2000 nM.

With `Cc1nc(N)cc(-c2nc3c4c(nc(OC[C@@]56CCN5C[C@]5(CC5(F)F)C6)nc4c2F)N([C@H](C)c2cccnc2N)CCO3)c1C(F)(F)F` [Example 605] the IC50 [1] was 11.3 nM, the IC50 [2] was 0.19 nM and the IC50 [3] was 11.9 nM. For the same compound, the IC50 [4] was 4 nM, the IC50 [5] was 0.14 nM and the IC50 [6] was 94 nM.

`Cc1nc(N)cc(-c2nc3c4c(nc(OC[C@@]56CCN5C[C@]5(CC5(F)F)C6)nc4c2F)N([C@H](C)c2cncnc2N)CCO3)c1C(F)(F)F` [Example 606] showed an IC50 [1] of 1520 nM, an IC50 [2] of 0.808 nM and an IC50 [3] of 855 nM. The IC50 [4] was 374 nM, the IC50 [5] was 0.2 nM and the IC50 [6] was > 2000 nM.

In the case of `Cc1cc(N)nc(-c2nc3c4c(nc(OC[C@@]56CCCN5C[C@H](F)C6)nc4c2F)N(C(C)c2scnc2N)CCO3)c1C(F)(F)F` (stereo partly drawn) [Example 607, 5-(1-(5-(6-amino-4-methyl-3-(trifluoromethyl)pyridin-2-yl)-4-fluoro-2-(((2R,7aS)-2-fluorotetrahydro-1H-pyrrolizin-7a(5H)-yl)methoxy)-8,9-dihydro-10H-7-oxa-1,3,6,10-tetraazacyclohepta[de]naphthalen-10-yl)ethyl)thiazol-4-amine], the IC50 [1] is reported as 90.7 nM, the IC50 [2] is reported as 0.69 nM and the IC50 [3] is reported as 17.8 nM. The IC50 [4] was 35.5 nM, the IC50 [5] was 0.27 nM and the IC50 [6] was 302 nM.

With `C[C@H](c1cccnc1N)N1CCOc2nc(-c3cc(N)ncc3C(F)(F)F)c(F)c3nc(OC[C@@]45CCCN4C[C@H](F)C5)nc1c23` [Example 608, 4-(10-((R)-1-(2-aminopyridin-3-yl)ethyl)-4-fluoro-2-(((2R,7aS)-2-fluorotetrahydro-1H-pyrrolizin-7a(5H)-yl)methoxy)-9,10-dihydro-8H-7-oxa-1,3,6,10-tetraazacyclohepta[de]naphthalen-5-yl)-5-(trifluoromethyl)pyridin-2-amine] the IC50 [1] was 246 nM, the IC50 [2] was 3.38 nM and the IC50 [3] was 45.1 nM. For the same compound, the IC50 [4] was 243 nM, the IC50 [5] was 0.52 nM and the IC50 [6] was 917 nM.

`Cc1c(F)c(N)nc(-c2nc3c4c(nc(OC[C@@]56CCCN5C[C@H](F)C6)nc4c2F)N([C@H](C)c2cncnc2N)CCO3)c1C(F)(F)F` [Example 613, 5-((R)-1-(5-(6-amino-5-fluoro-4-methyl-3-(trifluoromethyl)pyridin-2-yl)-4-fluoro-2-(((2R,7aS)-2-fluorotetrahydro-1H-pyrrolizin-7a(5H)-yl)methoxy)-8,9-dihydro-10H-7-oxa-1,3,6,10-tetraazacyclohepta[de]naphthalen-10-yl)ethyl)pyrimidin-4-amine] showed an IC50 [1] of 290 nM, an IC50 [2] of 1.45 nM and an IC50 [3] of 146 nM. It also gave an IC50 [4] of 160 nM, an IC50 [5] of 0.24 nM and an IC50 [6] of 1520 nM.

`Cc1c(F)c(N)nc(-c2nc3c4c(nc(OC[C@@]56CCCN5C[C@]5(CC5(F)F)C6)nc4c2F)N([C@H](C)c2cccnc2N)CCO3)c1C(F)(F)F` [Example 614] was tested, and the IC50 [1] was 1.75 nM, the IC50 [2] was 0.16 nM and the IC50 [3] was 2.42 nM. For the same compound, the IC50 [4] was 1960 nM, the IC50 [5] was 0.12 nM and the IC50 [6] was 11.5 nM.

`Cc1c(F)c(N)cc(-c2nc3c4c(nc(OC[C@@]56CCCN5C[C@H](F)C6)nc4c2F)N([C@H](C)c2cncnc2N)CCO3)c1C(F)(F)F` [Example 617, 5-((R)-1-(5-(5-amino-4-fluoro-3-methyl-2-(trifluoromethyl)phenyl)-4-fluoro-2-(((2R,7aS)-2-fluorotetrahydro-1H-pyrrolizin-7a(5H)-yl)methoxy)-8,9-dihydro-10H-7-oxa-1,3,6,10-tetraazacyclohepta[de]naphthalen-10-yl)ethyl)pyrimidin-4-amine] gave an IC50 [1] of 38 nM, an IC50 [2] of 0.31 nM and an IC50 [3] of 28.8 nM. The IC50 [4] was 24.4 nM, the IC50 [5] was 0.11 nM and the IC50 [6] was 239 nM.

`C[C@H](c1cccnc1N)N1CCOc2nc(-c3nc(N)cc4ccccc34)c(F)c3nc(OC[C@@]45CCCN4C[C@H](F)C5)nc1c23` [Example 618, 1-(10-((R)-1-(2-aminopyridin-3-yl)ethyl)-4-fluoro-2-(((2R,7aS)-2-fluorotetrahydro-1H-pyrrolizin-7a(5H)-yl)methoxy)-9,10-dihydro-8H-7-oxa-1,3,6,10-tetraazacyclohepta[de]naphthalen-5-yl)isoquinolin-3-amine] gave an IC50 [1] of 393 nM, an IC50 [2] of 3.43 nM and an IC50 [3] of 233 nM. The IC50 [4] was 93.2 nM, the IC50 [5] was 0.45 nM and the IC50 [6] was 1050 nM.

In the case of `Cc1c(F)c(N)nc(-c2nc3c4c(nc(OC[C@@]56CCCN5C[C@H](F)C6)nc4c2Cl)N([C@H](C)c2cccnc2N)CCO3)c1C(F)(F)F` [Example 620, 6-(10-((R)-1-(2-aminopyridin-3-yl)ethyl)-4-chloro-2-(((2R,7aS)-2-fluorotetrahydro-1H-pyrrolizin-7a(5H)-yl)methoxy)-9,10-dihydro-8H-7-oxa-1,3,6,10-tetraazacyclohepta[de]naphthalen-5-yl)-3-fluoro-4-methyl-5-(trifluoromethyl)pyridin-2-amine], the IC50 [1] is reported as 19.2 nM, the IC50 [2] is reported as 0.748 nM and the IC50 [3] is reported as 4.29 nM. For the same compound, the IC50 [4] was 132 nM, the IC50 [5] was 0.24 nM and the IC50 [6] was 89.8 nM.
